{"source": "patent US10519193B2", "about": "“Steroidal compound, composition containing the same and use thereof” (Shenzhen TargetRx, Inc., priority 2016, dated 2019)", "key": {"[1]": {"tested_on": "PSA protein secretion, LNcaP cells", "test": "Inhibition of cellular PSA protein secretion", "type": "cell-based", "details": "Homo sapiens, 1 nM DHT, 48 hours, ELISA, read-out: Inhibition of PSA proteins, IC50", "procedure": "Experimental steps: 1. The original culture medium was replaced with culture medium containing 10% Charcoal Stripped FBS, and cells were allowed to starve in culture flasks for 24 hours; 2. Cells were digested and counted, and LNcaP cells were seeded into 96-well plates at 10,000 cells/well and incubated overnight; 3. The DHT and compound were added to the existing medium at a set concentration, the final concentration of DHT was 1 nM, the initial concentration of the compound was 50000 nM, 5-fold dilution was carried out, 8 concentration gradients were obtained, and incubation was carried out for 48 hours; 4. Cell culture supernatants were collected and PSA protein levels were measured according to the ELISA kit instructions. IC50 was calculated using GraphPad Prism based on the inhibition rate at each concentration, and the results were shown in Table 2 below."}, "[2]": {"test": "Metabolic stability evaluation in human liver microsomes", "type": "in vitro ADME", "details": "human liver microsome", "procedure": "Experiments in microsomes: Human liver microsomes: 0.5 mg/mL, Xenotech; Coenzyme (NADPH/NADH): 1 mM, Sigma Life Science; Magnesium chloride: 5 mM, 100 mM phosphate buffer (pH 7.4).\nPreparation of stock solution: Powder of the example compound was accurately weighed and dissolved in DMSO to 5 mM.\nPreparation of phosphate buffer (100 mM, pH7.4): A pre-formulated 0.5M potassium dihydrogen phosphate (150 mL) was mixed with 0.5M dibasic potassium phosphate (700 mL). The pH of the mixture was adjusted to 7.4 with 0.5M dibasic potassium phosphate solution. The mixture was diluted 5-fold with ultrapure water before use, and magnesium chloride was added to obtain a phosphate buffer (100 mM) containing 100 mM potassium phosphate, 3.3 mM magnesium chloride, pH 7.4.\nA NADPH regeneration system solution (containing 6.5 mM NADP, 16.5 mM G-6-P, 3 U/mL G-6-P D, 3.3 mM magnesium chloride) was prepared and placed on wet ice prior to use.\nPreparation of stop solution: acetonitrile solution containing 50 ng/mL propranolol hydrochloride and 200 ng/mL tolbutamide (internal standard). 25057.5 μL of phosphate buffer (pH 7.4) was taken into a 50 mL centrifuge tube, to which 812.5 μL human liver microsomes were added, and mixed to obtain a liver microsome dilution solution with a protein concentration of 0.625 mg/mL. 25057.5 μL of phosphate buffer (pH 7.4) was taken into a 50 mL centrifuge tube, to which 812.5 μL SD rat liver microsomes were added, and mixed to obtain a liver microsome dilution solution with a protein concentration of 0.625 mg/mL.\nIncubation of the samples: The stock solution of the respective compound was respectively diluted to 0.25 mM with an aqueous solution containing 70% acetonitrile, and used as a working solution, ready for use. 398 μL of the dilution solution of human liver microsomes or rat liver microsome were added to a 96-well incubation plate (N=2), respectively, and 2 μL of 0.25 mM working solution was added and mixed.\nMetabolic stability assay: 300 μL of pre-chilled stop solution was added to each well of a 96-well deep well plate and placed on ice as a stop plate. The 96 well incubation plate and NADPH regeneration system were placed in a 37° C. water bath box, shaken at 100 rpm and pre-incubated for 5 min. 80 μL of incubation solution was taken out from each well of the incubation plate and added to the stop plate, mixed, and replenished with 20 μL of NADPH regeneration system solution as a 0-min sample. 80 μL of NADPH regeneration system solution was added to each well of the incubation plate to start the reaction and start counting. […] Separately, 100 μL of the reaction solution was taken at 10, 30, and 90 min reaction, respectively, added to a stop plate, and vortexed for 3 minutes to terminate the reaction. The stop plate was centrifuged at 5000×g at 4° C. for 4 min. 100 μL of the supernatant was added to a 96-well plate to which 100 μL of distilled water was previously added, mixed, and analyzed by LC-MS/MS.\nData analysis: The peak areas of the corresponding compound and internal standard were detected by LC-MS/MS system, and the ratio of the peak area of the compound to the internal standard was calculated."}, "Human CYP17 [3]": {"molecular_target": "T1, Human CYP17 (Homo sapiens, UniProt P05093)", "T1 sequence (P05093 1-508)": "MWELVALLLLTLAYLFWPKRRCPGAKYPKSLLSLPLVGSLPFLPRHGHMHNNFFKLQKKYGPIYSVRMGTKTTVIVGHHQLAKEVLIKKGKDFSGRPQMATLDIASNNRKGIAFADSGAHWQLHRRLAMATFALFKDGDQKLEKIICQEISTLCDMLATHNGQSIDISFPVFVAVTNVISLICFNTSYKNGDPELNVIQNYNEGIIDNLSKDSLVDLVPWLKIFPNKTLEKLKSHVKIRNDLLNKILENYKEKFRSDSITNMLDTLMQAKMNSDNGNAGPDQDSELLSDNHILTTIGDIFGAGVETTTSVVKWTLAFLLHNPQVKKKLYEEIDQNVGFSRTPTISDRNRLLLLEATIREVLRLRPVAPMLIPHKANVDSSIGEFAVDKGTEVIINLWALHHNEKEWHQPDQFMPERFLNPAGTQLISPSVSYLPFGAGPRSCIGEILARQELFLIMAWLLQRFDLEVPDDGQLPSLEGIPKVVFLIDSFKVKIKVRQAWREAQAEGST", "test": "CYP17 lyase assay", "type": "biochemical", "parameters": "made in house; host or cells: HEK293 cells (microsomes)", "details": "CYP17-HEK293 microsomes, 20 minutes at room temperature; read-out: CYP17 lyase IC50", "procedure": "Human CYP17 was expressed in HEK293 cells and microsome were prepared, which was subsequently used as a source of enzyme for lyase assays. The reaction includes 200 nM [3H]-hydroxy pregnenolone (ARC), 200 nM 17-hydroxy pregnenolone (Sigma), 2 mM NADPH (Calbiochem), and CYP 17-HEK293 microsomes, which were incubated for 20 minutes at room temperature in the presence of DMSO or a test compound. Compounds were dissolved in DMSO and serially diluted. The reaction was stopped by the addition of 0.2N HCl and the product was captured using an anti-mouse YSi SPA Bead (GE) conjugated anti-DHEA monoclonal antibody (Abcam). The signal intensity determined by Packard Top Count was used to calculate the percent inhibition and IC50 values."}, "Human CYP17 [4]": {"molecular_target": "T1, Human CYP17", "test": "CYP17 hydroxylase assay", "type": "biochemical", "parameters": "made in house; host or cells: E. coli (membrane preparation)", "details": "hCYP17 E. coli membrane, 25 μM pregnenolone, 37° C. 120 minutes; read-out: CYP17 hydroxylase IC50", "procedure": "E. coli was transformed to express active human CYP17, and a membrane prepared from the transformed E. coli was used as a source of the enzyme. […] The reaction mixture was incubated at 37° C. for 120 minutes and 200 μL of 0.02 N HCl in acetonitrile was added to stop the reaction. The sample was then spun at […] and 200 μL of the supernatant was transferred to a clean tube for determination. The reaction product 17-alpha pregnenolone was measured by LC/MS."}, "[5]": {"details": "human liver microsomes, pH 7.4, 1 μM compound, 0.5 mg/mL protein"}}, "data": [{"smiles": "[2H]c1ccc(C2=CCC3C4CCC5=CC(=O)CC[C@]5(C)C4CC[C@]23C)cn1", "note": "(stereo partly drawn) [Example 12, (3β)-17-(3-pyridyl-6-d)androst-4,16-dien-3-one]", "values": [{"measurement": "IC50", "setting": "[1]", "result": "< 10", "unit": "nM"}, {"measurement": "clearance compared to the non-deuterated compound", "setting": "[2]; in words", "result": "reduced"}, {"measurement": "half-life compared to the non-deuterated compound", "setting": "[2]; in words", "result": "prolonged"}, {"measurement": "half-life at 1 μM", "setting": "[2]; [5]", "result": 3.4, "unit": "min"}, {"measurement": "microsomal CLint at 1 μM", "setting": "[2]; [5]", "result": 408, "unit": "µL/min/mg"}, {"measurement": "IC50", "setting": "Human CYP17 [3]", "result": "< 10", "unit": "nM"}, {"measurement": "IC50", "setting": "Human CYP17 [4]", "result": "< 20", "unit": "nM"}]}, {"smiles": "[2H]C1=C(c2cccnc2)[C@@]2(C)CCC3C(CCC4=CC(=O)CC[C@@]43C)C2C1", "note": "(stereo partly drawn) [Example 13, (3β)-17-(3-pyridyl)-16-d-androst-4,16-dien-3-one]", "values": [{"measurement": "IC50", "setting": "[1]", "result": "< 10", "unit": "nM"}, {"measurement": "IC50", "setting": "Human CYP17 [3]", "result": "< 10", "unit": "nM"}, {"measurement": "IC50", "setting": "Human CYP17 [4]", "result": "< 20", "unit": "nM"}]}]}
